Laboratory results taken from ChEMBL document CHEMBL5338710, “Discovery of dearomatized isoprenylated acylphloroglucinols with colon tumor suppressive activities in mice via inhibiting NFκB-FAT1-PDCD4 signaling activation” (Eur J Med Chem, 2022).
Activity calls are given as the source filed them. No cut-off for these calls is given here.

Experiments:
HCT-116 [1] = assay: Antiproliferative activity against human HCT-116 cells assessed as reduction in cell viability at 5 uM measured after 48 hrs by MTT assay; type: functional, cell-based
[2] = Antiproliferative activity against human PBMC cells assessed as reduction in cell viability measured after 48 hrs by MTT assay; type: toxicity, cell-based
HCT-116 [3] = assay: Antiproliferative activity against human HCT-116 cells assessed as reduction in cell viability measured after 48 hrs by MTT assay; type: functional, cell-based; conditions: HCT-116, 48 h
HCT-116 [4] = assay: Antitumor activity against human HCT-116 cells xenografted in nude mouse assessed as decrease in tumor volume at 25 mg/kg, iv measured upto 23 days in presence of oxaliplatin; type: functional, organism-based; conditions: time <= 23.0 day
HCT-116 [5] = assay: Antitumor activity against human HCT-116 cells xenografted in nude mouse assessed as decrease in tumor weight at 25 mg/kg, iv measured upto 23 days in presence of oxaliplatin; type: functional, organism-based; conditions: time <= 23.0 day
HCT-116 [6] = assay: Antitumor activity against human HCT-116 cells xenografted in nude mouse assessed as reduction in tumor weight at 3 to 4 mg/kg, iv measured for 23 days in presence of oxaliplatin; type: functional, organism-based; conditions: dose 3-4 mg/kg, time 23.0 day
HCT-116 [7] = assay: Antitumor activity against human HCT-116 cells xenografted in nude mouse assessed as decrease in tumor volume at 3 to 4 mg/kg, iv measured for 23 days in presence of oxaliplatin; type: functional, organism-based; conditions: dose 3-4 mg/kg, time 23.0 day
[8] = target: Nuclear factor NF-kappa-B complex (Homo sapiens) (UniProt Q00653+P19838+Q04206); assay: Inhibition of TNFalpha induced-NFkB phosphorylation in human HCT-116 cells at 1 to 5 uM pretreated for 24 hrs followed by TNFalpha induction and measured after 24 hrs by Western blot analysis; type: cell-based; conditions: dose 1-5 µM, time 48.0 hrs
Nuclear factor NF-kappa-B complex (Homo sapiens), sequence (P19838 whole entry, looked up): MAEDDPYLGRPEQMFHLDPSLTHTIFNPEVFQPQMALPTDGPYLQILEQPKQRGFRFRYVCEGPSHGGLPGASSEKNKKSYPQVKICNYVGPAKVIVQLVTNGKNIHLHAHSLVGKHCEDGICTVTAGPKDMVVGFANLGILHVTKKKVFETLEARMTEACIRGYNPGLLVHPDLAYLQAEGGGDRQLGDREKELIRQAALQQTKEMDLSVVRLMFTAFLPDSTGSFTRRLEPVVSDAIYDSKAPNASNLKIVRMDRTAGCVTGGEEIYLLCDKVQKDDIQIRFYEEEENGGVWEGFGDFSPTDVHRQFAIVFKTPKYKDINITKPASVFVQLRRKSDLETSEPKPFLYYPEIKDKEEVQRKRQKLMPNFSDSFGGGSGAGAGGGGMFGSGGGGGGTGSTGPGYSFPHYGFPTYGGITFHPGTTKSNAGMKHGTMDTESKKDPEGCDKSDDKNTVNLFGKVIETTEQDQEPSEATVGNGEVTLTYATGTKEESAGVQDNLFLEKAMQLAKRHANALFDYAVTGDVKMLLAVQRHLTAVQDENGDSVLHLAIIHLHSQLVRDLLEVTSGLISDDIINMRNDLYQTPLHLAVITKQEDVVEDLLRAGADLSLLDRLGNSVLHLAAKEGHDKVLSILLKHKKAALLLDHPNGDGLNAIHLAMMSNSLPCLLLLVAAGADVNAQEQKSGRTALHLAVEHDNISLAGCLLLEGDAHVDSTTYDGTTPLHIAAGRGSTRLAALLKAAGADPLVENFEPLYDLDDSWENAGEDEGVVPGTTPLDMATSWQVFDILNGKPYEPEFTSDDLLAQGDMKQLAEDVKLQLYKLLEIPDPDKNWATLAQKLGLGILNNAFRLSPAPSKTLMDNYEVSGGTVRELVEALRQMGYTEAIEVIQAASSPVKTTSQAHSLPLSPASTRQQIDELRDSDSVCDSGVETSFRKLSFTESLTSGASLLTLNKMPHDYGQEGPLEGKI
Nuclear factor NF-kappa-B complex (Homo sapiens), sequence (Q00653 whole entry, looked up): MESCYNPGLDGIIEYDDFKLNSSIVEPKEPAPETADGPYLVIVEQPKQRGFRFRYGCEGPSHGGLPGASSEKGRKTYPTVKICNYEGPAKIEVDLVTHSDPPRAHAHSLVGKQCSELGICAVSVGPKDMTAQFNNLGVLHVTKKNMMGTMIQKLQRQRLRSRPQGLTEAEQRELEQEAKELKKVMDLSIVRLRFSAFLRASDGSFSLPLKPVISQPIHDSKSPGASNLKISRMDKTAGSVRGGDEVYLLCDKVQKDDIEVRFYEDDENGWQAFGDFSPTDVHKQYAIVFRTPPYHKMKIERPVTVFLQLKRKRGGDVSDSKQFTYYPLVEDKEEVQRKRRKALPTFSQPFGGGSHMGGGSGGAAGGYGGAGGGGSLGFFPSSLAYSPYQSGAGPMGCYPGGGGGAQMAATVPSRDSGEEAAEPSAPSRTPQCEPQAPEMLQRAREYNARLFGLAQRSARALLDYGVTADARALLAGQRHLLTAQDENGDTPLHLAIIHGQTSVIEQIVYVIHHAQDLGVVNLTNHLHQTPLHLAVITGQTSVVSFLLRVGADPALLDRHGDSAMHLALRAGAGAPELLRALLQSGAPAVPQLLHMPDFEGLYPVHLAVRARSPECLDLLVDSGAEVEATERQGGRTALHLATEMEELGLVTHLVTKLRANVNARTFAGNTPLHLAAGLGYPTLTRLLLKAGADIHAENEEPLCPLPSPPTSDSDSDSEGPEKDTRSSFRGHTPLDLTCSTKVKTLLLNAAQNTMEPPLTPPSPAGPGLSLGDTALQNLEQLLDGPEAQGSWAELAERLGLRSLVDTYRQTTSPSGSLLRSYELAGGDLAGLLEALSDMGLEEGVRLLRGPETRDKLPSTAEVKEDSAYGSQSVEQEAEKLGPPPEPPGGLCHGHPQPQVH
Nuclear factor NF-kappa-B complex (Homo sapiens), sequence (Q04206 whole entry, looked up): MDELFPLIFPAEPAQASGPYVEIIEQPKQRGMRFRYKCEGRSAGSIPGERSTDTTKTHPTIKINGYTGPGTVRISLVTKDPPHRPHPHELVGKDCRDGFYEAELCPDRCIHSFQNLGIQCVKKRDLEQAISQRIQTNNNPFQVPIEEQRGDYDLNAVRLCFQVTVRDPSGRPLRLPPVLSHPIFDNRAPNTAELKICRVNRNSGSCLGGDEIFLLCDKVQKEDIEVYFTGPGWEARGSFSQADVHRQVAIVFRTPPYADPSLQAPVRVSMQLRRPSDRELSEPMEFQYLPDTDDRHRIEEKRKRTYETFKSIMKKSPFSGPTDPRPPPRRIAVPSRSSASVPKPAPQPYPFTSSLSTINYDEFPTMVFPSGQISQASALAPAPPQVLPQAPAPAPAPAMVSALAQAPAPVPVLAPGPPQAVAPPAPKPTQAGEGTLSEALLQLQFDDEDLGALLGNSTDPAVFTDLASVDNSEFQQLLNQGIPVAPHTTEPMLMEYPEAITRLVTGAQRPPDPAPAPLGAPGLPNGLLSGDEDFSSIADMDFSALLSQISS

In the case of `CC(C)=CCC1(CC=C(C)C)C(=O)/C(=C(/O)c2ccccc2)C2=C(C1O)[C@H]1C=C(C(C)C)CC[C@@]1(C)O2` (some centres undefined), the Activity (HCT-116 [1]) is reported as “Active”.
For `CC(C)=CC[C@@]1(C)C(=O)C(C(=O)C(C)C)=C(O)C2=C1O[C@]1(C)CC[C@@]3(C(C)C)O[C@@]13[C@H]2O`, the Activity (HCT-116 [1]) was “Active”.
In the case of `C=C(C)[C@H]1CC[C@@](C)(O)[C@@H](C2=C(O)[C@@](C)(CC=C(C)C)C(=O)C(C(=O)C(C)CC)=C2O)C1` (some centres undefined), the Activity (HCT-116 [1]) is reported as “Active”, the IC50 at 48 h [2] is reported as 19.6 µM and the IC50 (HCT-116 [3]) is reported as 2.32 µM.
In the case of `CC(C)=CCC1(CC=C(C)C)C(=O)C(C(=O)c2ccccc2)=C(O)C([C@H]2C=C(C(C)C)CC[C@@]2(C)O)=C1O`, the Activity (HCT-116 [1]) is reported as “Active”.
In the case of `CCC(C)C(=O)C1=C(O)C2=C(OC(C)(C)[C@@H]3CC[C@@](C)(O)[C@@H]3C2)[C@](C)(CC=C(C)C)C1=O` (some centres undefined), the Activity (HCT-116 [1]) is reported as “Active”.
For `C=C(C)[C@@H]1CC[C@@](C)(O)[C@H]1CC1=C(O)C(C)(CC=C(C)C)C(=O)C(C(=O)C(C)CC)=C1O` (some centres undefined), the Activity (HCT-116 [1]) was “Active”, the IC50 at 48 h [2] was over 100 µM and the IC50 (HCT-116 [3]) was 5.63 µM.
For `C=C(C)[C@H]1CC[C@@](C)(O)[C@@H](C2=C(O)[C@](C)(CC=C(C)C)C(=O)C(C(=O)C(C)C)=C2O)C1`, the Activity (HCT-116 [1]) was “Active”, the IC50 at 48 h [2] was 14.4 µM and the IC50 (HCT-116 [3]) was 2.63 µM.
In the case of `COC[C@@H]1C2=C(O)C(CC=C(C)C)(CC=C(C)C)C(=O)C(C(=O)C(C)C)=C2OC1(C)C`, the Activity (HCT-116 [1]) is reported as “Active”.
In the case of `C=C(C)[C@@H]1CC[C@@](C)(O)[C@H]1CC1=C(O)C(CC=C(C)C)(CC=C(C)C)C(=O)C(C(=O)C(C)CC)=C1O` (some centres undefined), the Activity (HCT-116 [1]) is reported as “Active”, the IC50 at 48 h [2] is reported as 10 µM and the IC50 (HCT-116 [3]) is reported as 2.46 µM.
With `CC(C)=CC[C@@]12C(=O)C(C(=O)C(C)C)=C(O)C(C)=C1O[C@]1(C)CCC(C(C)C)=C[C@H]21` the Activity (HCT-116 [1]) was “Active”.
For `C=C(C)[C@@H]1CC[C@@](C)(O)[C@H]1CC1=C(O)C(CC=C(C)C)(CC=C(C)C)C(=O)C(C(=O)c2ccccc2)=C1O`, the Activity (HCT-116 [1]) was “Active”.
For `C=C(C)[C@@H]1CC[C@@]2(C)OC3=C(CC12)C(O)=C(C(=O)C(C)C)C(=O)C3(C)CC=C(C)C` (some centres undefined), the Activity (HCT-116 [1]) was “Active”.
In the case of `O=c1[nH]cc(F)c(=O)[nH]1`, the Activity (HCT-116 [4]) is reported as “Active”, the Activity (HCT-116 [5]) is reported as “Active” and the Activity (HCT-116 [6]) is reported as “Active”. The Activity (HCT-116 [7]) was “Active”.
For `C=C(C)[C@@H]1CC[C@](C)(O)[C@H]1CC1=C2O[C@H](C(C)(C)O)C[C@]2(CC=C(C)C)C(=O)C(C(=O)c2ccccc2)=C1O`, the Activity (HCT-116 [1]) was “Active”.
In the case of `CC(C)=CCC1(CC=C(C)C)C(=O)C(C(=O)c2ccccc2)=C(O)C([C@@H]2C[C@H]3CC[C@]2(C)OC3(C)C)=C1O`, the Activity (HCT-116 [1]) is reported as “Active”.
For `CC(C)=CCC1(CC=C(C)C)C(=O)C(C(=O)C(C)C)=C(O)C([C@H]2C[C@]3(C(C)(C)O)CC[C@@]2(C)O3)=C1O`, the Activity (HCT-116 [1]) was “Active”.
In the case of `CC(C)=CC[C@@]1(C)C(=O)C(C(=O)C(C)C)=C(O)C([C@H]2C[C@]3(C(C)(C)O)CC[C@@]2(C)O3)=C1O`, the Activity (HCT-116 [1]) is reported as “Active”.
In the case of `C=C(C)[C@H]1CC[C@@](C)(O)[C@@H](C2=C(O)C(CC=C(C)C)(CC=C(C)C)C(=O)C(C(=O)C(C)C)=C2O)C1`, the inhibition [8] is reported as “inactive”.
With `CC(C)=CCC1(CC=C(C)C)C(=O)C(C(=O)C(C)C)=C(O)C2=C1OC(C)(C)[C@@H]1CC[C@@](C)(O)[C@@H]1C2` the Activity (HCT-116 [1]) was “Active”.
In the case of `C=C(C)[C@@H]1CC[C@@](C)(O)[C@H]1CC1=C2O[C@H](C(C)(C)O)C[C@]2(C)C(=O)C(C(=O)C(C)CC)=C1O` (some centres undefined), the Activity (HCT-116 [1]) is reported as “Active”.
For `C=C(C)[C@@H]1CC[C@@](C)(O)[C@H]1CC1=C2O[C@H](C(C)(C)O)C[C@]2(CC=C(C)C)C(=O)C(C(=O)C(C)C)=C1O`, the Activity (HCT-116 [1]) was “Active”.
For `C=C(C)[C@@H]1CC[C@@](C)(O)[C@H]1CC1=C2O[C@H](C(C)(C)O)C[C@]2(CC=C(C)C)C(=O)C(C(=O)c2ccccc2)=C1O`, the Activity (HCT-116 [1]) was “Active”.
With `CCC(C)C(=O)C1=C(O)C2=C(OC(C)(C)C3CC[C@@](C)(O)[C@H]3C2)[C@](C)(CC=C(C)C)C1=O` (some centres undefined) the Activity (HCT-116 [1]) was “Active”.
In the case of `CC(C)=CCC1(C)C(=O)C(C(=O)C(C)C)=C(O)C([C@@H]2C[C@H]3CC[C@]2(C)OC3(C)C)=C1O` (some centres undefined), the Activity (HCT-116 [1]) is reported as “Active”.
In the case of `C=C(C)[C@H]1CC[C@@](C)(O)[C@@H](C2=C(O)C(CC=C(C)C)(CC=C(C)C)C(=O)C(C(=O)c3ccccc3)=C2O)C1`, the Activity (HCT-116 [1]) is reported as “Active”, the IC50 at 48 h [2] is reported as 24 µM and the IC50 (HCT-116 [3]) is reported as 3.67 µM.
For `CC(C)=CCC1(CC=C(C)C)C(=O)C(C(=O)C(C)C)=C(O)C2=C1O[C@]1(C)CCC3(C(C)C)OC31[C@H]2O` (some centres undefined), the Activity (HCT-116 [1]) was “Active”.
For `CC(C)=CC[C@]1(C)C(=O)C(C(=O)C(C)C)=C(O)C2=C1OC(C)(C)C1CC[C@@](C)(O)[C@H]1C2` (some centres undefined), the Activity (HCT-116 [1]) was “Active”.
In the case of `CC(C)=CC[C@@]12C[C@@H](C(C)(C)O)OC1=C(CC1[C@H]3CC[C@]1(C)OC3(C)C)C(O)=C(C(=O)C(C)C)C2=O` (some centres undefined), the Activity (HCT-116 [1]) is reported as “Active”.
With `C=C(C)[C@@H]1CC[C@@]2(C)OC3=C(CC12)C(O)=C(C(=O)c1ccccc1)C(=O)C3(CC=C(C)C)CC=C(C)C` (some centres undefined) the Activity (HCT-116 [1]) was “Active”.
For `C=C(C)[C@H]1CC[C@@]2(C)OC3=C(CC12)C(O)=C(C(=O)C(C)CC)C(=O)C3(C)CC=C(C)C` (some centres undefined), the Activity (HCT-116 [1]) was “Active”.
With `CC(C)=CC[C@]1(C)C(=O)C(C(=O)C(C)C)=C(O)C2=C1O[C@]1(C)CC[C@]3(C(C)C)O[C@]13[C@H]2O` the Activity (HCT-116 [1]) was “Active”.
